Columns and labels:
[1] = target: T1, cutinase from Colletotrichum capsici (Colletotrichum truncatum, UniProt P10951); assay: turbidimetric hydrolysis assay (OD630); format: biochemical; details: 30°C; substrate emulsion in 25 mM potassium phosphate pH 8.0, 0.5% gum arabic
T1 construct: gene CUTA; purchased recombinant protein

[2] = target: T1, cutinase from Colletotrichum capsici; assay: turbidimetric ester hydrolysis assay (OD630); format: biochemical; details: read-out: relative activity at 500 μg/ml berberine

T1 sequence (P10951 17-228): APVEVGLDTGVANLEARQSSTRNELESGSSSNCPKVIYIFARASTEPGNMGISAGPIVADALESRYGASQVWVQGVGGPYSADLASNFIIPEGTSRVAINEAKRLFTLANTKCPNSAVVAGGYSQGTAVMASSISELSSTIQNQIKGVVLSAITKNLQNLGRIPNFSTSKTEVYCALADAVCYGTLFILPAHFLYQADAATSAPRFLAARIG

| SMILES | turbidimetric hydrolysis assay (OD630) [1] | activity at 500 µg/mL [2] |
| --- | --- | --- |
| CCCCCCCC(=O)OCC(COC(=O)CCCCCCC)OC(=O)CCCCCCC [Glyceryl trioctanoate] | larger reduced enzyme activities for longer chain substrates glyceryl trioctanoate and isopropyl myristate |  |
| CCCC(=O)OCC(COC(=O)CCC)OC(=O)CCC [Tributyrin] | For short chain substrate tributyrin, berberine conferred slight decrease of relative activity |  |
| COc1ccc2cc3[n+](cc2c1OC)CCc1cc2c(cc1-3)OCO2 [berberine] |  | 78% |

Source: article PMC7894860, “Molecular dynamics investigation of the interaction between Colletotrichum capsici cutinase and berberine suggested a mechanism for reduced enzyme activity” (PLoS ONE, 2021)
